In brackets after ≈: the same amount, converted by molar mass.
Columns and labels:
E. coli biofilms = test: Biofilm growth assay (spreading biofilm on semi-solid agar), E. coli; format: cell-based; conditions: biofilm growth assay, overnight 37° C., vs negative controls, Tables 1-5; for IC85: Escherichia coli, read-out: E. coli: concentration that reduces the area of the spreading biofilm by greater than or equal to 85%
Excerpt: (§1) “Biofilm Growth Assay” refers to an assay performed on semi-solid agar surface where the bacteria collectively move out from an inoculation point. To those skilled in the art, the act of bacteria collectively moving out from an inoculation point on a semi-solid surface may be referred to as swarming or a spreading biofilm. (Anderson, et al Microbiology, 2003, 149, 37-46; Daniels, et al. FEMS Microbiology Reviews, 2004, 28, 261-289). The procedure to perform this assay is described in detail in the Examples. This type of surface motility by bacteria has been reported in the literature by those skilled in the art. […] These references are incorporated herein by reference in their entirety.
(§2) The biofilm growth assay was carried out to measure swarming or biofilm spreading on semi-solid agar media in round plates (for example, 100×15 mm), also referred to as Petri dishes. For E. coli, the plates contained LB medium with 0.6% agar and 0.5% glucose. P. aeruginosa plates were made with M8 agar supplemented with 0.2% glucose, 100 μM CaCl2, 1 mM MgSO4, and 0.5% Casamino acids. The agar plates of this assay consisted of 0.4% to 0.7% agar (Bacto or Noble agar), although other media may also be used as described in the literature and known to those skilled in the art. Test compounds at the desired concentration were added to the cooled, autoclaved media. Portions of the media were then poured into the plates (20 mL/plate), and the plates allowed to dry at room temperature for approximately 3 to 4 hours. Alternatively, however, plates may be dried in a laminar flow hood for approximately fifteen to twenty minutes. Overnight cultures were grown in a 37° C. shaker in LB (E. coli) or TSB (P. aeruginosa). Plates were inoculated by placing 5 μL of the appropriate overnight culture in the centers of the plates. The plates then were incubated overnight at 37° C. The area of the zone of spreading bacteria was then measured and replicates are averaged. Percent inhibition was calculated as 100×(area without compound−area with compound)/(area without compound). An active compound was considered that which reduces the area of the spreading biofilm compared to negative controls by greater than or equal to 85%. The values shown in Table 1 are the concentrations of compounds (μg/ml) tested in the biofilm growth assay that reduce the area of the spreading biofilm compared to negative controls by greater than or equal to 85% unless noted differently in Table 1. A > (“greater than” symbol) as used in Table 1 is well understood to those skilled in the art as an indication that the listed concentration was not effective at this concentration.
(§3) All of the compounds shown in Tables 2, 3, 4, and 5, below, were prepared semi-synthetically from oleanolic acid, except for Compounds 2 and 3. Compound 2 was prepared from ursolic acid. Compound 3 was prepared from hederagenin, but could also be prepared from an oleanolic acid analog with a hydroxyl at C23 or C24. These compounds were tested in the spreading biofilm assay according to the methods detailed in Example I, above. The values shown in Tables 2, 3, 4, and 5 are the concentrations of compounds tested in the biofilm growth assay that reduce the area of the spreading biofilm compared to negative controls by greater than or equal to 85%.

P. aeruginosa biofilms = test: Biofilm growth assay (spreading biofilm on semi-solid agar), P. aeruginosa; format: cell-based; conditions: biofilm growth assay, overnight 37° C., vs negative controls, Tables 1-5; for IC85: Pseudomonas aeruginosa, read-out: P. aeruginosa: concentration that reduces the area of the spreading biofilm by greater than or equal to 85%
Excerpt: as §1, §2, §3

Structure (SMILES)	E. coli: concentration that reduces the area of the spreading biofilm by greater than or equal to 85% (E. coli biofilms)	P. aeruginosa: concentration that reduces the area of the spreading biofilm by greater than or equal to 85% (P. aeruginosa biofilms)	IC85 (E. coli biofilms)	IC85 (P. aeruginosa biofilms)
CN(C)c1ccc(C2=C3[C@@H]4CC(C)(C)CC[C@]4(C(=O)O)CC[C@@]3(C)[C@]3(C)CC[C@H]4C(C)(C)c5n[nH]c(N)c5C[C@]4(C)C3C2)cn1 (stereo partly drawn) [Example 44, (4aS,6aS,6bR,8aR,13aR,15bS)-12-Amino-15-(6-(dimethylamino)pyridin-3-yl)-2,2,6a,6b,9,9,13a-heptamethyl-2,3,4,4a,5,6,6a,6b,7,8,8a,9,11,13,13a,13b,14,15b-octadecahydro-1H-chryseno[1,2-f]indazole-4-a-carboxylic acid]	2 µg/mL	0.5 µg/mL	–	–
CC1(C)CC[C@]2(C(=O)O)CC[C@]3(C)C(=C(Br)CC4[C@@]5(C)Cc6c(n[nH]c6N)C(C)(C)[C@@H]5CC[C@]43C)[C@@H]2C1 (stereo partly drawn) [Example 25, (4aS,6aS,6bR,8aR,13aR,15bR)-12-Amino-15-bromo-2,2,6a,6b,9,9,13a-heptamethyl-2,3,4,4a,5,6,6a,6b,7,8,8a,9,11,13,13a,13b,14,15b-octadecahydro-1H-chryseno[1,2-f]indazole-4-a-carboxylic acid]	>2 µg/mL	0.5 µg/mL	–	–
CC1(C)CC[C@]2(C(=O)O)CC[C@]3(C)C(=CC[C@@H]4[C@@]5(C)Cc6c(noc6N)C(C)(C)[C@@H]5CC[C@]43C)[C@@H]2C1 [K]	–	–	> 8 µg/mL	> 8 µg/mL
CN(C)c1ccc(C2=C3[C@@H]4CC(C)(C)CC[C@]4(C(=O)O)CC[C@@]3(C)[C@]3(C)CC[C@H]4C(C)(C)c5n[nH]c(N)c5C[C@]4(C)C3C2)cc1 (stereo partly drawn) [Example 10, (4aS,6aS,6bR,13aR)-12-Amino-15-(4-(dimethylamino)phenyl)-2,2,6a,6b,9,9,13a-heptamethyl-2,3,4,4a,5,6,6a,6b,7,8,8a,9,11,13,13a,13b,14,15b-octadecahydro-1H-chryseno[1,2-f]indazole-4-a-carboxylic acid]	–	–	1 µg/mL (≈ 1.63 µM)	0.5 µg/mL (≈ 0.816 µM)
CC1(C)CC[C@]2(C(=O)n3cnc(S)n3)CC[C@]3(C)C(=CCC4[C@@]5(C)Cc6c(n[nH]c6N)C(C)(C)C5CC[C@]43C)C2C1 (stereo partly drawn) [Compound 76, ((4aS,6aS,6bR,13aR)-12-Amino-2,2,6a,6b,9,9,13a-heptamethyl-2,3,4,4a,5,6,6a,6b,7,8,8a,9,11,13,13a,13b,14,15b-octadecahydro-1H-chryseno[1,2-f]indazol-4-a-yl)(3-mercapto-1H-1,2,4-triazol-1-yl)methanone]	–	–	2 µg/mL (≈ 3.47 µM)	0.5 µg/mL (≈ 0.867 µM)
CC1(C)CC[C@]2(C(=O)Nc3cc(O)[nH]n3)CC[C@]3(C)C(=CCC4[C@@]5(C)Cc6c(n[nH]c6N)C(C)(C)C5CC[C@]43C)C2C1 (stereo partly drawn) [Compound 66, (4aS,6aS,6bR,13aR)-12-Amino-N-(5-hydroxy-1H-pyrazol-3-yl)-2,2,6a,6b,9,9,13a-heptamethyl-2,3,4,4a,5,6,6a,6b,7,8,8a,9,11,13,13a,13b,14,15b-octadecahydro-1H-chryseno[1,2-f]indazole-4-a-carboxamide]	–	–	1 µg/mL (≈ 1.74 µM)	0.25 µg/mL (≈ 0.435 µM)
CC1(C)CC[C@]2(C(=O)O)CC[C@]3(C)C(=C(CO)CC4[C@@]5(C)Cc6c(n[nH]c6N)C(C)(C)[C@@H]5CC[C@]43C)[C@@H]2C1 (stereo partly shown) [N]	–	–	8 µg/mL (≈ 15.3 µM)	8 µg/mL (≈ 15.3 µM)
CN1CCN(c2c([C@]34CCC(C)(C)CC3C3=CCC5[C@@]6(C)Cc7c(n[nH]c7N)C(C)(C)C6CC[C@@]5(C)[C@]3(C)CC4)n[nH]c2O)CC1 (stereo partly drawn) [Compound 89, 3-((4aS,6aS,6bR,13aR)-12-Amino-2,2,6a,6b,9,9,13a-heptamethyl-2,3,4,4a,5,6,6a,6b,7,8,8a,9,11,13,13a,13b,14,15b-octadecahydro-1H-chryseno[1,2-f]indazol-4-a-yl)-4-(4-methylpiperazin-1-yl)-1H-pyrazol-5-ol]	1 µg/mL	1 µg/mL	–	–
CC1(C)CC[C@]2(C(=O)O)CC[C@]3(C)C(=C(c4ccncc4)CC4[C@@]5(C)Cc6c(n[nH]c6N)C(C)(C)[C@@H]5CC[C@]43C)[C@@H]2C1 (stereo partly drawn) [Example 29, (4aS,6aS,6bR,8aR,13aR,15bS)-12-Amino-2,2,6a,6b,9,9,13a-heptamethyl-15-(pyridin-4-yl)-2,3,4,4a,5,6,6a,6b,7,8,8a,9,11,13,13a,13b,14,15b-octadecahydro-1H-chryseno[1,2-f]indazole-4-a-carboxylic acid]	1 µg/mL	1 µg/mL	–	–
CC1(C)CC[C@]2(C(=O)Sc3nnc(N)[nH]3)CC[C@]3(C)C(=CCC4[C@@]5(C)Cc6c(n[nH]c6N)C(C)(C)C5CC[C@]43C)C2C1 (stereo partly drawn) [Compound 70, (4aS,6aS,6bR,13aR)—S-5-Amino-4H-1,2,4-triazol-3-yl12-amino-2,2,6a,6b,9,9,13a-heptamethyl-2,3,4,4a,5,6,6a,6b,7,8,8a,9,11,13,13a,13b,14,15b-octadecahydro-1H-chryseno[1,2-f]indazole-4-a-carbothioate]	–	–	2 µg/mL (≈ 3.38 µM)	0.5 µg/mL (≈ 0.845 µM)
CC1(C)CC[C@]2(C(=O)O)CC[C@]3(C)C(=C(c4ccc(N5CCNCC5)nc4)CC4[C@@]5(C)Cc6c(n[nH]c6N)C(C)(C)C5CC[C@]43C)C2C1 (stereo partly drawn) [Example 55, (4aS,6aS,6bR,13aR)-12-Amino-2,2,6a,6b,9,9,13a-heptamethyl-15-(6-(piperazin-1-yl)pyridin-3-yl)-2,3,4,4a,5,6,6a,6b,7,8,8a,9,11,13,13a,13b,14,15b-octadecahydro-1H-chryseno[1,2-f]indazole-4-a-carboxylic acid]	2 µg/mL	>1 µg/mL	–	–
CN1CCN(c2ccc(C3=C4C5CC(C)(C)CC[C@]5(C(=O)O)CC[C@@]4(C)[C@]4(C)CCC5C(C)(C)c6n[nH]c(N)c6C[C@]5(C)C4C3)cc2)CC1 (stereo partly drawn) [Example 53, (4aS,6aS,6bR,13aR)-12-Amino-2,2,6a,6b,9,9,13a-heptamethyl-15-(4-(4-methylpiperazin-1-yl)phenyl)-2,3,4,4a,5,6,6a,6b,7,8,8a,9,11,13,13a,13b,14,15b-octadecahydro-1H-chryseno[1,2-f]indazole-4-a-carboxylic acid]	2 µg/mL	0.5 µg/mL	–	–
CC1(C)CC[C@]2(C(=O)O)CC[C@]3(C)C(=C(c4cccc5[nH]ccc45)CC4[C@@]5(C)Cc6c(n[nH]c6N)C(C)(C)C5CC[C@]43C)C2C1 (stereo partly drawn) [Example 48, (4aS,6aS,6bR,13aR)-12-Amino-15-(1H-indol-4-yl)-2,2,6a,6b,9,9,13a-heptamethyl-2,3,4,4a,5,6,6a,6b,7,8,8a,9,11,13,13a,13b,14,15b-octadecahydro-1H-chryseno[1,2-f]indazole-4-a-carboxylic acid]	1 µg/mL	0.5 µg/mL	–	–
CC1(C)CC[C@]2(c3cc(O)[nH]n3)CC[C@]3(C)C(=CCC4[C@@]5(C)Cc6c(n[nH]c6N)C(C)(C)[C@@H]5CC[C@]43C)[C@@H]2C1 (stereo partly drawn) [Compound 68, 3-((4aS,6aS,6bR,13aR)-12-Amino-2,2,6a,6b,9,9,13a-heptamethyl-2,3,4,4a,5,6,6a,6b,7,8,8a,9,11,13,13a,13b,14,15b-octadecahydro-1H-chryseno[1,2-f]indazol-4-a-yl)-1H-pyrazol-5-ol]	–	–	0.5 µg/mL (≈ 0.94 µM)	0.5 µg/mL (≈ 0.94 µM)

Source: patent US8324264B1, “Inhibitors of bacterial biofilms and related methods” (Sequoia Sciences, Inc., priority 2011, dated 2012)
